Results from patent US12662491B2 (Redona Therapeutics, Inc., priority 2020, dated 2026).
Read-outs that look alike come from different tables or passages of the source.

Target: T1, Zcchc11 enzyme (Homo sapiens, UniProt Q5TAX3)
T1 construct: made in house; host or cells: HEK293 cells (Zcchc11); E. coli Rosetta II (LIN28A)
T1 sequence (Q5TAX3 212-1420): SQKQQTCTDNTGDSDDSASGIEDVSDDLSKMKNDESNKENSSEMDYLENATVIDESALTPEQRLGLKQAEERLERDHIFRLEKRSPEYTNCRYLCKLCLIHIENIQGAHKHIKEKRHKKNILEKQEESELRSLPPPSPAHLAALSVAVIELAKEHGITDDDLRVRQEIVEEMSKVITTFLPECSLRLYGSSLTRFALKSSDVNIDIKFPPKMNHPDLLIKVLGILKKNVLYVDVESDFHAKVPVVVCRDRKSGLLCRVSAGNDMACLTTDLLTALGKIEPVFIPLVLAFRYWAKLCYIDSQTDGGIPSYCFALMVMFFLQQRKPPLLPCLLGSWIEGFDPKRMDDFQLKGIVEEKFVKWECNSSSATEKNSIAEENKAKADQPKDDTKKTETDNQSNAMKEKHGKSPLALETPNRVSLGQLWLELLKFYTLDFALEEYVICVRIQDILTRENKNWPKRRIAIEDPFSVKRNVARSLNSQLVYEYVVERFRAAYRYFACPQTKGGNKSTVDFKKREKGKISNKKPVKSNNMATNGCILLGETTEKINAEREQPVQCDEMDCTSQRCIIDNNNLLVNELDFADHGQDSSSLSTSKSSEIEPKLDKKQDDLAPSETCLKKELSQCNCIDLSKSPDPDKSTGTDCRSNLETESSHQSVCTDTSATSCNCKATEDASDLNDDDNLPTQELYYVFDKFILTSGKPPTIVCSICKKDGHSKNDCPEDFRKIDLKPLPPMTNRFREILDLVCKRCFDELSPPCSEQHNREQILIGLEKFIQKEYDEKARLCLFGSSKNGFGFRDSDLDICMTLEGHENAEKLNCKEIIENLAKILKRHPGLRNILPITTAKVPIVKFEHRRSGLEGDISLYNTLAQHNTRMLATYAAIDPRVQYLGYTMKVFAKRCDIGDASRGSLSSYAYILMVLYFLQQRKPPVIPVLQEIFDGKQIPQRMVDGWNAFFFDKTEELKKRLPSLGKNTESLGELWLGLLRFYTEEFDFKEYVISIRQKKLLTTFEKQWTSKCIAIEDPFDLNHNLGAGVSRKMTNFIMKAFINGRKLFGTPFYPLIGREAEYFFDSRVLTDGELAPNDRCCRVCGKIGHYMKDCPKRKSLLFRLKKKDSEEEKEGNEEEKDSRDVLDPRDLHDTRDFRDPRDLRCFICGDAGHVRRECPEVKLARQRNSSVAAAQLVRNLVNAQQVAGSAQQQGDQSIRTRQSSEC
Experiment: TUTase assay (Zcchc11 assay, Lin28a-dependent polyuridylation of pre-let-7)
Format: biochemical
Conditions: read-out: Potency Lin28a-dep Z11 IC50
Method in brief: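 Readout: time-dependent quench of 5′-fluorescein pre-let-7 (2 nM) as 3′-rhodamine A20 probe anneals to poly(U) tails. Enzyme 0.2 nM Zcchc11 (res. 212-1420), LIN28A 10 nM, UTP 5 uM; pH 7.3 HEPES, 150 mM KCl, 5 mM MgCl2, RT. 4-parameter IC50; 100% = DMSO, 0% = no UTP.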

[1] = Lin28a-dependent Zcchc11 (Z11) TUTase assay
[2] = Lin28a-dependent Zcchc11 (Z11) TUTase activity
[3] = LIN28A 10 nM, Zcchc11 0.2 nM, 5′-fluorescein pre-let-7 miRNA 2 nM, UTP 5 uM, room temperature, 30 minutes pre-incubation

SMILES	IC50 [1] [nM]	IC50 [2] [nM]	also measured
COc1ccnc(OC[C@H]2C[C@H]3C[C@H]3N2c2cc3c(cc2Cl)c(=O)c(C(=O)O)cn3-c2ccc(N3CC(N(C)C)C3)nc2)c1C [Example 683, 6-chloro-1-(6-(3-(dimethylamino)azetidin-1-yl)pyridin-3-yl)-7-((1R,3R,5R)-3-(((4-methoxy-3-methylpyridin-2-yl)oxy)methyl)-2-azabicyclo[3.1.0]hexan-2-yl)-4-oxo-1,4-dihydroquinoline-3-carboxylic acid]	≤ 1000	–	–
O=C(O)c1cn(C2CCCC2)c2cc(N3CCC[C@@H]3COc3ccccn3)c(F)cc2c1=O [Example 449, (R)-1-cyclopentyl-6-fluoro-4-oxo-7-(2-((pyridin-2-yloxy)methyl)pyrrolidin-1-yl)-1,4-dihydroquinoline-3-carboxylic acid]	1000 to 10000	–	–
CN(C)C1CN(c2ccc(-n3cc(C(=O)O)c(=O)c4cc(Cl)c(N5CCC[C@@H]5CCOc5ccccn5)cc43)cn2)C1 [Example 591, (R)-6-chloro-1-(6-(3-(dimethylamino)azetidin-1-yl)pyridin-3-yl)-4-oxo-7-(2-(2-(pyridin-2-yloxy)ethyl)pyrrolidin-1-yl)-1,4-dihydroquinoline-3-carboxylic acid]	≤ 1000	–	–
N#Cc1cc2c(=O)c(C(=O)O)cn(-c3cnccn3)c2nc1N1CCC[C@@H]1COc1ccccc1 [Compound 283, (R)-6-cyano-4-oxo-7-(2-(phenoxy-methyl)pyrrolidin-1-yl)-1-(pyrazin-2-yl)-1,4-dihydro-1,8-naphthyridine-3-carboxylic acid]	–	10000 to 50000	–
CC1(n2cc(C(=O)O)c(=O)c3cc(Cl)c(N4CCC[C@@H]4COc4ncccc4Cl)cc32)CC1 [Compound 129, (R)-6-chloro-7-(2-(((3-chloropyridin-2-yl)oxy)methyl)pyrrolidin-1-yl)-1-(1-methylcyclo-propyl)-4-oxo-1,4-dihydro-quinoline-3-carboxylic acid]	–	≤ 1000	–
O=C(O)c1cn(-c2ccc3c(c2F)CCN3)c2cc(N3CCC[C@@H]3COc3ccccn3)c(F)cc2c1=O [Example 32, (R)-6-fluoro-1-(4-fluoroindolin-5-yl)-4-oxo-7-(2-((pyridin-2-yloxy)methyl)pyrrolidin-1-yl)-1,4-dihydroquinoline-3-carboxylic acid]	–	–	IC50 [3]: ≤ 1000 nM
CN(C)C1CN(c2ccc(-n3cc(C(=O)O)c(=O)c4cc(Cl)c(N5CC(F)(F)C[C@@H]5COc5ncccc5Cl)nc43)cn2)C1 [Example 60, 6-chloro-7-[(2R)-2-[[(3-chloropyridin-2-yl)oxy]methyl]-4,4-difluoropyrrolidin-1-yl]-1-[6-[3-(dimethylamino)azetidin-1-yl]pyridin-3-yl]-4-oxo-1,8-naphthyridine-3-carboxylic acid]	–	–	IC50 [3]: ≤ 1000 nM
COc1ccc(Cl)c(OC[C@H]2CC3CC3N2c2cc3c(cc2F)c(=O)c(C(=O)O)cn3-c2ccc(N3CC(N(C)C)C3)nc2)n1 (stereo partly drawn) [Example 72, 7-[(3R)-3-{[(3-chloro-6-methoxypyridin-2-yl)oxy]methyl}-2-azabicyclo[3.1.0]hexan-2-yl]-1-{6-[3-(dimethylamino)azetidin-1-yl]pyridin-3-yl}-6-fluoro-4-oxo-1,4-dihydroquinoline-3-carboxylic acid]	–	–	IC50 [3]: ≤ 1000 nM
O=C(O)c1cn(-c2ccccc2CO)c2cc(N3CCC[C@@H]3COc3ccccn3)c(F)cc2c1=O [Example 403, (R)-6-fluoro-1-(2-(hydroxymethyl)phenyl)-4-oxo-7-(2-((pyridin-2-yloxy)methyl)pyrrolidin-1-yl)-1,4-dihydroquinoline-3-carboxylic acid]	1000 to 10000	–	–
COc1ccc(Cl)c(OC[C@H]2CC(C3CCC3)CN2c2cc3c(cc2Cl)c(=O)c(C(=O)O)cn3-c2ccc(N3CC(N(C)C)C3)nc2)n1 (mixture of isomers) [Compound 203, rac-6-chloro-7-((2R)-2-(((3-chloro-6-methoxy-pyridin-2-yl)oxy)methyl)-4-cyclobutyl-pyrrolidin-1-yl)-1-(6-(3-(dimethyl-amino)azetidin-1-yl)pyridin-3-yl)-4-oxo-1,4-dihydro-quinoline-3-carboxylic acid]	–	≤ 1000	–
CN(C)C1CN(c2ccc(-n3cc(C(=O)O)c(=O)c4cc(F)c(N5C[C@@H](F)C[C@@H]5COc5ncccc5F)cc43)cn2)C1 [Example 465, 1-(6-(3-(dimethylamino)azetidin-1-yl)pyridin-3-yl)-6-fluoro-7-((2R,4S)-4-fluoro-2-(((3-fluoropyridin-2-yl)oxy)methyl)pyrrolidin-1-yl)-4-oxo-1,4-dihydroquinoline-3-carboxylic acid]	≤ 1000	–	–
CN(C)c1ccc(Cl)c(OC[C@H]2CCCN2c2cc3c(cc2Cl)c(=O)c(C(=O)O)cn3-c2ccc(N3CC(N(C)C)C3)nc2)n1 [Compound 350, (R)-6-chloro-7-(2-(((3-chloro-6-(dimethyl-amino)pyridin-2-yl)oxy)methyl)pyrrolidin-1-yl)-1-(6-(3-(dimethyl-amino)azetidin-1-yl)pyridin-3-yl)-4-oxo-1,4-dihydro-quinoline-3-carboxylic acid]	–	≤ 1000	–
CN(C)C1CN(c2ccc(-n3cc(C(=O)O)c(=O)c4cc(C#N)c(N5C(=O)CC[C@@H]5COc5ncccc5Cl)cc43)cn2)C1 [Example 54, (R)-7-(2-(((3-chloropyridin-2-yl)oxy)methyl)-5-oxopyrrolidin-1-yl)-6-cyano-1-(6-(3-(dimethylamino)azetidin-1-yl)pyridin-3-yl)-4-oxo-1,4-dihydroquinoline-3-carboxylic acid]	–	–	IC50 [3]: 10000 to 50000 nM
COc1cnc(OC[C@H]2C[C@H]3C[C@H]3N2c2cc3c(cc2Cl)c(=O)c(C(=O)O)cn3-c2ccc(N3CC(N(C)C)C3)nc2)c(Cl)c1 [Example 662, 6-chloro-7-((1R,3R,5R)-3-(((3-chloro-5-methoxypyridin-2-yl)oxy)methyl)-2-azabicyclo[3.1.0]hexan-2-yl)-1-(6-(3-(dimethylamino)azetidin-1-yl)pyridin-3-yl)-4-oxo-1,4-dihydroquinoline-3-carboxylic acid]	≤ 1000	–	–
CN(C)C1CN(c2ccc(-n3cc(C(=O)O)c(=O)c4cc(Cl)c(N5CC(C)(C)C[C@@H]5COc5ncccc5Cl)cc43)cn2)C1 [Compound 254, 6-chloro-7-[(2R)-2-[[(3-chloropyridin-2-yl)oxy]methyl]-4,4-dimethyl-pyrrolidin-1-yl]-1-[6-[3-(dimethyl-amino)azetidin-1-yl]pyridin-3-yl]-4-oxoquinoline-3-carboxylic acid]	–	≤ 1000	–
Cn1ccnc1-n1cc(C(=O)O)c(=O)c2cc(Cl)c(N3CCC[C@@H]3COc3ncccc3Cl)cc21 [Example 568, (R)-6-chloro-7-(2-(((3-chloropyridin-2-yl)oxy)methyl)pyrrolidin-1-yl)-1-(1-methyl-1H-imidazol-2-yl)-4-oxo-1,4-dihydroquinoline-3-carboxylic acid]	≤ 1000	–	–
Cc1cc2c(=O)c(C(=O)O)cn(-c3ccc(N4CC(N(C)C)C4)nc3)c2cc1N1CCC[C@@H]1COc1ncccc1Cl [Example 533, (R)-7-(2-(((3-chloropyridin-2-yl)oxy)methyl)pyrrolidin-1-yl)-1-(6-(3-(dimethylamino)azetidin-1-yl)pyridin-3-yl)-6-methyl-4-oxo-1,4-dihydroquinoline-3-carboxylic acid]	≤ 1000	–	–
CN(C)C1CN(c2ccc(-n3cc(C(=O)O)c(=O)c4cc(Cl)c(N5C(=O)CCCC5COc5ccccn5)cc43)cn2)C1 (stereo not shown) [Compound 324, 6-Chloro-1-[6-[3-(dimethyl-amino)azetidin-1-yl]pyridin-3-yl]-4-oxo-7-[2-oxo-6-[(pyridin-2-yloxy)methyl]piperidin-1-yl]quinoline-3-carboxylic acid]	–	10000 to 50000	–
NCCOc1cccnc1OC[C@H]1CCCN1c1cc2c(cc1Cl)c(=O)c(C(=O)O)cn2-c1ccc(Br)nc1 [Example 50, (R)-7-(2-(((3-(2-aminoethoxy)pyridin-2-yl)oxy)methyl)pyrrolidin-1-yl)-1-(6-bromopyridin-3-yl)-6-chloro-4-oxo-1,4-dihydroquinoline-3-carboxylic acid]	–	–	IC50 [3]: ≤ 1000 nM
